Test [1] relates to HEK293 cells transfected with TRPM8. Description: soft agar assay, colony formation rate. The class given is cell-based. The settings on record: TRPM8 transfected HEK293 cells vs wild type and empty vector cells; menthol 10, 100, and 100 μM in medium, substituted every fifth day; after three weeks.
Method: HEK293 cells were not transfected, transfected with TRPM8 or transfected with an empty vector. The cells were used in a soft agar assay (see reference Shappel et al., Cancer Research 61:497-503 (2001)). The cells highly individually plated out and immobilized in agar are caused to grow three-dimensionally and independently of the substrate in this way. The colony formation rate permits conclusions regarding the tumorigenicity of the cells to be drawn. 1000 cells were plated out in the 6-hole plate in 2 ml of medium containing soft agar and coated with 1 ml of medium (DMEM with 10% FCS, 2mM glutamine) after the agar congealed. Menthol dissolved in ethanol was added to the medium in end concentrations of 10, 100, and 100 μM and substituted every fifth day. The solvent alone was added as a control. After three weeks the number of colonies formed was determined under the microscope.
The next test concerns HEK293 TRPM8 cells. Description: tumor growth in hairless mice. Type of test: in vivo. The settings on record: male hairless mice, HEK293 TRPM8 cells subcutaneous or xenotransplanted in the prostate; 20 mg/kg daily intraperitoneal in DMSO, three weeks; vs untreated control animals. As for the experimental part:
Human TRPM8 cDNA was subcloned in the expression vector pcDNA3.1 and subsequently stably transfected in HEK293 cells. […] To study the effect of menthol or icilin on tumor growth in vivo 2 million HEK293 TRPM8 cells were subcutaneously injected or xenotransplanted in the prostate in male hairless mice. The test groups in each case consisted of 10 animals. The control groups were untreated or treated only with DMSO. The animals were treated by daily intraperitoneal administration of 20 mg/kg body weight icilin or menthol, dissolved in DMSO, over a time interval of three weeks. The growth of the subcutaneously injected cells was measured twice weekly over the entire test duration. Immediately after completion of the trials the “xenotransplants” were resected, weighed and preserved.

For the compound `CC1CCC(C(C)C)C(O)C1` (stereo not drawn) [menthol], the “number of colonies formed (colony formation rate)” value in test [1] was “distincly less colony formation”. Further, in the test on HEK293 TRPM8 cells, the tumor growth result is recorded as “distinctly less tumor growth”.
As for `O=C1NC(c2cccc([N+](=O)[O-])c2)=CCN1c1ccccc1O` [icilin], the tumor growth result with HEK293 TRPM8 cells is listed as “distinctly less tumor growth”.

For the origin of these results see US20070010574A1, “Use of a trpm8-activating substance for the treatment of tumours” (priority 2002, published 2007).
